In paper PMC7822874, “Chemoprotective antimalarials identified through quantitative high-throughput screening of Plasmodium blood and liver stage parasites” (Scientific Reports, 2021):
Like-named read-outs stand apart in the source and are kept apart here.

How the values were obtained:
[1] = test system: HepG2-A16-CD81EGFP cells; settings: averaged response (percent)
[2] = test system: P. berghei-ANKA-GFP-LucCON liver stage parasites in HepG2-A16-CD81EGFP cells; assay: P. berghei liver stage Pb-Luc assay, Method 1 (UCSD, 1536-well); type: cell-based, Plasmodium berghei; settings: P. berghei liver stage, averaged response (percent); for Average P. berghei 1 µM response (%): the header list (r8) defines it as the 1 µM dose
[3] = test system: P. falciparum Dd2 (clone B2) asexual blood stage parasites; assay: P. falciparum Dd2 asexual blood stage SYBR Green-I 72 h proliferation assay (qHTS); type: cell-based, Plasmodium falciparum; settings: averaged P. falciparum asexual blood stage potency, log10 of AC50 in M
[4] = HepG2, the header list (r10) describes it as the 1 µM dose

SMILES | Average HepG2 3 µM response( %) ([1]; HepG2, 3 µM dose) [%] | Average HepG2 3 µM response( %) [1, 4] [%] | Average P. berghei 3 µM response( %) [2] [%] | Average P. berghei 1 µM response (%) [2] [%] | Pf ABS Log AC50 (M) [3] [M]
CCN1CCN(Cc2ccc(NC(=O)c3cc(NC(=O)C(=O)c4c[nH]c5ccccc45)cc(OC)c3)cc2C(F)(F)F)CC1.O=C(O)C(F)(F)F [MLS003105970] | 106 | 106 | 54 | 132 | -6.175
COc1cccc(CNCC(O)(c2ccc(Cl)cc2)c2ccc(Cl)cc2)c1 [MLS000325699] | 101 | 105 | 98 | 112 | -5.812
COc1cc(O)c(C(CCN2CCCC(C)C2)c2cc(OC)c(OC)c(OC)c2)c(OC)c1 (stereo not shown) [MLS000879467] | 86 | 89 | 71 |  | -5.687
Cc1cc(Nc2cccc(C(F)(F)F)c2)nc2ccc(NC(=O)c3cncc(Br)c3)cc12 [NCGC00124348] | 101 | 107 | 38 | 76 | -5.625
c1cc(Nc2ncnc3sc4c(c23)CCC4)ccn1 [MLS000681348] | 103 | 103 | 95 | 92 | -5.462
Cc1ccc2oc(=O)c3cnn(CC(=O)Nc4cccc(C(F)(F)F)c4)c3c2c1 [NCGC00110933] | 98 | 97 | 101 | 114 | -5.575
N=c1c2c(n(Cc3ccccc3)c3c1CCC3)CCC2 [MLS000080128] | 74 | 94 | 16 | 14 | -5.712
CN1CCC(NCCC(c2ccc(F)cc2)c2ccc(Cl)cc2)CC1 (stereo not shown) [MLS001215866] | 100 | 100 | 70 | 103 | -5.437
OC(CNCCNc1ncccc1C(F)(F)F)Cn1ccc2ccccc21 (stereo not shown) [MLS000833573] | 95 | 101 | 109 | 113 | -5.662
CCN1CCN(C(=O)c2ccc3c(c2)N(Cc2c(F)cccc2Cl)C(=O)c2ccccc2S3)CC1 [NCGC00108184] | 107 | 105 | 76 | 94 | -8.075
O=S1(=O)N(CCN2CC=C(c3c[nH]c4cc(F)ccc34)CC2)c2cccc3c2N1CCC3 [MLS002172448] | 80 | 88 | 60 | 78 | -6.050
O=C(/C=C/c1ccco1)NC(=S)Nc1ccccc1N1CCCC1 [MLS000663784] | 105 | 105 | 104 | 113 | -5.575
CC(C)OCCCNc1sc([S+](=O)([O-])c2ccccc2)nc1[S+](=O)([O-])c1ccc(Cl)cc1 [NCGC00116822] | 94 | 93 | 76 | 75 | -6.575
Oc1ccc(C2NCc3ccccc3-n3cccc32)cc1Cl (stereo not shown) [MLS000878874] | 105 | 105 | 82 | 96 | -5.925
CCOC(=O)c1cn(CC)c2cc(N3CCSCC3)c(F)cc2c1=O [MLS000038775] | 85 | 89 | 21 |  | -6.012
c1ccc(CNc2nc(-c3ccccn3)nc3ccccc23)cc1 [MLS001165148] | 87 | 96 | 8 | 72 | -5.662
CCOC(=O)N1CCc2c(sc3nc4n(c(=O)c23)N=C(c2ccc(OC)cc2)CS4)C1 [MLS000859689] | 98 | 100 | 87 | 113 | -5.012
C=C(C)COc1ccc(-c2ncnc(C(F)(F)F)c2-c2ccc(OC)cc2)c(O)c1 [MLS001216205] | 103 | 92 | 105 | 107 | -5.462
O=C1c2cc(F)ccc2-n2c1nc1ccccc1c2=O [MLS001216278] | 94 | 94 | 13 | 25 | -5.937
CC(C)C(=O)OCC(=O)[C@@]12O[C@H](C3CCCCC3)O[C@@H]1C[C@H]1[C@@H]3CCC4=CC(=O)C=C[C@]4(C)[C@H]3[C@@H](O)C[C@@]12C [NCGC00167484] | 92 | 94 | 125 | 137 | -5.762
CCN(CC)CCn1c(=N)n(CC(O)COc2ccccc2C)c2ccccc21 (stereo not shown) [NCGC00101835] | 100 | 104 | 72 | 117 | -5.475
COc1ccc(-c2nc3sc(CCNC(=O)c4ccc(C(C)(C)C)cc4)c(C)n3n2)cc1 [NCGC00137079] | 98 | 98 | 84 | 132 | -5.675
COc1cc(Br)c(C(C)NC(=O)c2cccc(Br)c2)cc1OC (stereo not shown) [MLS000325399] | 93 | 98 | 70 | 107 | -5.887
O=C(Nc1c(C(=O)c2ccccc2)oc2ccccc12)c1cc(-c2ccccc2O)n[nH]1 [MLS000331861] | 101 | 103 | 116 | 84 | -5.837
COc1ccc(C2=C(Nc3ccc(C)cc3)c3ccccc3C2=O)cc1 [MLS000563980] | 89 | 94 | 25 | 81 | -5.637
Cc1cc(Cl)c(S(=O)(=O)N2CCN(c3ccccn3)CC2)cc1OCC(=O)NC1CCCCC1 [MLS000693481] | 100 | 93 | 74 | 99 | -6.387
Cn1ccc(NCc2nnc(C(=O)N3CCC[C@@H]3C(c3ccccc3)c3ccccc3)n2-c2ccccc2)n1 [NCGC00415774] | 99 | 96 | 89 | 95 | -5.875
